From patent US11117856B2, “Polyamine compounds targeting the efflux pumps of multi-drug resistant bacterial pathogens and methods of using the same” (UNIVERSITY OF SOUTH FLORIDA, priority 2016, dated 2021)
Where “and” joins values, the source holds several entries; their conditions need not be identical. Equal values may be shown once.

Legend:
[1] = tested on: P. aeruginosa; test: Bactericidal assessment with tetracycline; type: cell-based
Description: (§1) Lead agents were screened for bactericidal activity as described previously (Van Horn, et al. J. Med. Chem. 2014, 57, 3075-3093; […], et al. J. Med. Chem. 2015, 58, 3340-3355), with the following modifications. […] Biofilm experiments were performed similar to those described previously ([…], et al. J. Med. Chem. 2015, 58, 3340-3355; von Salm, et al. Org. Lett. 2016, 18, 2596-2599), with the following modifications.

[2] = tested on: P. aeruginosa biofilm; test: Pre-formed biofilm viability assessment with tetracycline; type: cell-based; conditions: for biofilm cells recovered, EPI alone: 25 μg mL^−1 (MPC), no tetracycline;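 as to biofilm recovery, combination treatment: percent recovery versus no treatment controls after 20 Hours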
Description: as §1

[3] = tested on: tetracycline resistant strain of P. aeruginosa; test: Checkerboard potentiation assay with tetracycline; type: cell-based; conditions: for FP* (Fold Potentiation, EC50): EC50 tetracycline with no TPI/with TPI; for FP* (Fold Potentiation, EC50) / FP^# (Fold Potentiation, EC90): 25 μg mL^−1 TPI; for FP^# (Fold Potentiation, EC90): EC90 tetracycline with no TPI/with TPI; for FP*^c (Fold Potentiation, EC50): Table 1, tetracycline EC50; for FP^#c (Fold Potentiation, EC90): Table 1, tetracycline EC90; for TPI (inhibitory concentration of the polyamines alone to produce EC values): polyamine alone, no tetracycline, 25 μg mL^−1 highest concentration tested
Description: The bacterial strains used in this study are multi-drug resistant clinical isolates that have previously been described (TABLE 2) (Fleeman, et al. J. Med. Chem. 2015, 58, 3340-3355). Organisms were grown in tryptic soy broth (TSB) for overnight cultures, and cation adjusted Mueller Hinton broth (CA-MH II) was used for experimental procedures. All incubations were performed at 37° C.
Scaffold ranking library samples and individual polyamines were screened using checkerboard inhibitory assays to assess the potentiation of tetracycline and chloramphenicol. The test utilized a 96-well plate microtiter assay where the concentration of the scaffold or individual polyamine was decreased from 25 μg mL^−1 to 0.8 μg mL^−1 (average molarity of 65 μM to 4 μM) along the rows, and the concentration of tetracycline or chloramphenicol was increased from 0.4 μM to 100 μM across the columns. Plates were incubated statically at 37° C. for 20 hours, and the optical density (OD600) was determined using a Synergy 2 plate reader (Biotek). Potentiation modeling (detailed below) was performed to determine fold change in the 50% and 90% effective concentration of tetracycline or chloramphenicol.
Potentiation was quantified using a mathematical model developed by our group to assess the ability of library samples and individual compounds to effectively enhance the activity of tetracycline or chloramphenicol (Hoel, D. G. Statistical Aspects of Chemical Mixtures. Methods for assessing the effects of mixtures of chemicals. 1987, New York). […] In this way, only libraries and compounds that potentiated tetracycline or chloramphenicol activity were pursued. The model is based on the following equation for modeling the percentage activity of a mixture of two agents with independent action (Hoel, et al. Statistical Aspects of Chemical Mixtures. Methods for assessing the effects of mixtures of chemicals. 1987, New York): %Antibiotic & Comp(x1,x2)=%Antibiotic(x1)+%Comp(x2)−%Antibiotic(x1)·%Comp(x2)
Here, x1 and x2 are the concentrations of antibiotic (tetracycline or chloramphenicol) and library/compound (Comp) tested, respectively. This equation can be rearranged to model the effective percent activity (EC) of the antibiotic alone, after accounting for compound activity:
[formula] Thus, the model-adjusted checkerboards show the antibiotic activity post-potentiation, and from that one can determine the true change in MIC.

[4] = tested on: HepG2 cells; test: MTT cytotoxicity assay; type: cell-based, human; conditions: 25 μg mL^−1 (highest concentration tested), 48 hours
Description: (§2) To assess toxicity of polyamine compounds we used HepG2 human liver carcinoma cells and Hek293T human embryonic kidney epithelial cells. […] J. Med. Chem. 2015, 58, 3340-3355). […] Cells were then incubated for 48 hours at 37° C. with 5% CO2. Following this, viability was assessed by the addition of MTT and measuring the OD570 in a Biotek plate reader. Percent recovery was determined compared to no drug controls.

[5] = tested on: Hek293T cells; test: MTT cytotoxicity assay; type: cell-based, human; conditions: 25 μg mL^−1, 48 hours
Description: as §2

[6] = tested on: P. aeruginosa cells; test: Bacterial membrane depolarization (DiSC3 dye); type: cell-based; conditions: 25 μg mL^−1
Description: To determine the level of membrane depolarization by polyamine compounds a 3,3′-dipropylthiadicarbocyanine Iodide (DiSC3) fluorescence dye was used. Exponentially growing cultures were prepared as described above, before being harvested by centrifugation. Cells were next washed in buffer A (5 mM HEPES pH 7.2, 5 mM glucose) and resuspended to an OD600 of 0.2 in the same buffer containing 100 mM KCl and 2 μM DiSC3. Samples were allowed to equilibrate for 15 minutes at room temperature to ensure uptake and quenching of the dye in bacterial membranes. Cells were aliquoted into 96-well plates and polyamines were added alongside the known efflux inhibitor PAN (all at 25 μg mL^−1). Nisin (25 μg mL^−1) was used as a positive control to display depolarization effects. A Biotek plate reader was used to monitor fluorescence of wells, with a 622 nm excitation and 670 nm emission. For graphical representation, the maximum relative fluorescence at 2 minutes was used for comparison of lead agents to controls.

[7] = 12 μM tetracycline + MPC of EPI
[8] = 50 μM tetracycline + MPC of EPI
[9] = 25 μM tetracycline + MPC of EPI

CN(C)[C@@H]1C(O)=C(C(N)=O)C(=O)[C@@]2(O)C(O)=C3C(=O)c4c(O)cccc4[C@@](C)(O)[C@H]3C[C@@H]12 [tetracycline, reference compound]
less recovery on increasing tetracycline alone ([1]; from 12 μM to 25 μM): 17.8%
bacterial recovery, tetracycline alone ([1]; tetracycline 12 μM): 53%
bacterial recovery, tetracycline alone ([1]; tetracycline 25 μM): 35%
bacterial recovery, tetracycline alone ([1]; tetracycline 50 μM): 1%
more biofilm eradication on increasing tetracycline by itself ([2]; from 12 μM to 25 μM): 4%
biofilm cells recovered, tetracycline alone ([2]; tetracycline 50 μM): 9%
EC50 ([3]; Pseudomonas aeruginosa, no EPI, average across all replicates, read-out: tetracycline alone EC50): 47.8 µM
EC90 ([3]; no library or EPI, average across all replicates, read-out: tetracycline alone EC90): 82.5 µM

NCCC[C@@H](CN[C@H](CN)Cc1ccccc1)NCCc1ccccc1 [TPI 314, (S)—N^1—((S)-1-amino-3-phenylpropan-2-yl)-N^2-phenethylpentane-1,2,5-triamine]
percent recovery, combination treatment [1, 7]: 5.3%
percent recovery, combination treatment [1, 8]: 0.01%
HepG2 cell viability / recovery [4]: 77%
biofilm recovery, combination treatment [2, 9]: 1%
biofilm cells recovered, EPI alone [2]: 99.99%
biofilm recovery, combination treatment [2, 8]: 0.6%
FP* (Fold Potentiation, EC50) [3]: 5 fold
FP^# (Fold Potentiation, EC90) [3]: 7.5 fold
FP*^c (Fold Potentiation, EC50) [3]: 5 fold and 5.0 fold
FP^#c (Fold Potentiation, EC90) [3]: 7.5 fold
TPI (inhibitory concentration of the polyamines alone to produce EC values) [3]: >25 µg/mL

NCCC[C@H](CN)NC[C@H](Cc1ccccc1)NCCc1ccccc1 [TPI 271, (R)—N^2—((S)-2-(phenethylamino)-3-phenylpropyl)pentane-1,2,5-triamine]
percent recovery, combination treatment [1, 7]: 2%
percent recovery, combination treatment [1, 8]: 0.02%
percent recovery of Hek293T cells compared to solvent only controls [5]: 75%
HepG2 cell viability / recovery [4]: 74%
biofilm recovery, combination treatment [2, 9]: 0.5%
biofilm cells recovered, EPI alone [2]: 99.99%
biofilm recovery, combination treatment [2, 8]: 0.2%
FP* (Fold Potentiation, EC50) [3]: 8.2 fold
FP^# (Fold Potentiation, EC90) [3]: 8.5 fold
FP*^c (Fold Potentiation, EC50) [3]: 8.2 fold
FP^#c (Fold Potentiation, EC90) [3]: 8.5 fold
TPI (inhibitory concentration of the polyamines alone to produce EC values) [3]: >25 µg/mL

CNCCCC[C@@H](CN)NC[C@H](Cc1ccccc1)NCCc1ccccc1 [TPI 247, (S)—N6-methyl-N2—((S)-2-(phenethylamino)-3-phenylpropyl)hexane-1,2,6-triamine]
percent recovery, combination treatment [1, 7]: 2.9%
percent recovery, combination treatment [1, 8]: 0.04%
percent recovery of Hek293T cells compared to solvent only controls [5]: 84%
biofilm recovery, combination treatment [2, 9]: 0.6%
biofilm cells recovered, EPI alone [2]: 99.99%
biofilm recovery, combination treatment [2, 8]: 0.2%
FP* (Fold Potentiation, EC50) [3]: 5 fold
FP^# (Fold Potentiation, EC90) [3]: 7.5 fold
FP*^c (Fold Potentiation, EC50) [3]: 5 fold and 5.0 fold
FP^#c (Fold Potentiation, EC90) [3]: 8.3 fold
TPI (inhibitory concentration of the polyamines alone to produce EC values) [3]: >25 µg/mL

O=C(N[C@H](CO)[C@H](O)c1ccc([N+](=O)[O-])cc1)C(Cl)Cl [chloramphenicol]
change in DiSC3 fluorescence (membrane depolarization) [6]: decreased in florescence

nisin
change in DiSC3 fluorescence (membrane depolarization) [6]: strong increase in fluorescence

NCC[C@@H](CN)NC[C@H](Cc1ccccc1)NCCc1ccccc1 [TPI 250, (S)—N^2—((S)-2-(phenethylamino)-3-phenylpropyl)butane-1,2,4-triamine]
percent recovery, combination treatment [1, 7]: 2.2%
percent recovery, combination treatment [1, 8]: 0.01%
HepG2 cell viability / recovery [4]: 80%
biofilm recovery, combination treatment [2, 7]: 21%
improvement of tetracycline alone biofilm eradication [2, 7]: 67%
biofilm recovery, combination treatment [2, 9]: 1%
biofilm cells recovered, EPI alone [2]: 99.99%
biofilm recovery, combination treatment [2, 8]: 0.5%
FP* (Fold Potentiation, EC50) [3]: 7 fold
FP^# (Fold Potentiation, EC90) [3]: 7.8 fold
FP*^c (Fold Potentiation, EC50) [3]: 7.0 fold
FP^#c (Fold Potentiation, EC90) [3]: 7.8 fold
TPI (inhibitory concentration of the polyamines alone to produce EC values) [3]: >25 µg/mL

COC(=O)[C@H]1[C@H]2C[C@@H]3c4[nH]c5cc(OC)ccc5c4CCN3C[C@H]2C[C@@H](OC(=O)c2cc(OC)c(OC)c(OC)c2)[C@@H]1OC [Reserpine, reference compound]
FP^#c (Fold Potentiation, EC90) [3]: 1 fold

phenylalanine arginine beta naphthalamide [PAβN, reference compound]
percent recovery, combination treatment [1, 7]: 0.79%
percent recovery, combination treatment [1, 9]: 0.2%
bacterial recovery (viability), EPI alone ([1]; 25 μg mL^−1, no tetracycline): 76%
percent recovery, combination treatment [1, 8]: 0.02%
change in DiSC3 fluorescence (membrane depolarization) [6]: strong increase in fluorescence
percent recovery of Hek293T cells compared to solvent only controls [5]: 63%
HepG2 cell viability / recovery [4]: 68%
biofilm recovery, combination treatment [2, 9]: 7%
biofilm recovery, combination treatment [2, 8]: 1%
TPL (inhibitory concentration of the Torrey Pines Library alone to produce an EC90 value) [3]: >25 µg/mL
FP (Fold Potentiation, EC90) ([3]; EC90 tetracycline with no TPL/EC90 tetracycline with TPL, 25 μg mL−1 library): 8.01 fold
EPI*^a (inhibitory concentration of the individual Efflux Pump Inhibitor alone) ([3]; EPI alone, 50% effective concentration): >25 µg/mL
FP*^c (Fold Potentiation, EC50) [3]: 65.5 fold
FP^#c (Fold Potentiation, EC90) [3]: 8 fold
